Each block holds one molecule with its values, some of them ahead of it.
How the values were obtained:
NMDAR = conditions: by blocking adenosine receptor; cited from earlier work
NMDAR glycine site = NMDAR glycine site (Homo sapiens, UniProt Q05586); assay: Modulation of the NMDAR glycine site in embodiments; conditions: in embodiments of the invention
[1] = Tinnitus side effect of CMF modulator treatment; format: in vivo, human
hair regrowth = conditions: topical petroleum jelly composition, up to 10% by weight, shaved skin of mice; cited from earlier work
NMDAR glutamate site = conditions: laboratory studies; cited from earlier work

Structure (SMILES): Cn1c(=O)c2c(ncn2C)n(C)c1=O [Caffeine]
NMDAR stimulation (NMDAR): stimulates NMDAR at low micromolar concentrations

modulation of the NMDAR glycine site (NMDAR glycine site): stronger negative modulation effects
Structure (SMILES): NCCS(=O)(=O)O [Taurine]

Structure (SMILES): N[C@@H](CCC(=O)O)C(=O)O [glutamic acid]
tinnitus ([1]; dosed sublingually or topically): issues related to tinnitus have been observed | rate of hair regrowth (hair regrowth): increases the rate of hair regrowth

Structure (SMILES): O=C1CC[C@@H](C(=O)O)N1 [pyroglutamic acid]
tinnitus ([1]; dosed orally): issues related to tinnitus have been observed | modulation of the NMDAR glutamate site (NMDAR glutamate site): negative modulator

— patent US20230115416A1, “COMPOSITIONS AND METHODS FOR PROMOTING CELLULAR METABOLIC FITNESS” (priority 2021, published 2023)
